# Assay results: patent US6908935B2, “Calcium receptor modulating agents” (Amgen Inc., priority 2002, dated 2005)
# Molecular target: T1, human parathyroid cell Ca^2+ receptor (hPCaR) (Homo sapiens, UniProt P41180)
# T1 construct: expressed in transfected cells
# T1 sequence (P41180 20-1078): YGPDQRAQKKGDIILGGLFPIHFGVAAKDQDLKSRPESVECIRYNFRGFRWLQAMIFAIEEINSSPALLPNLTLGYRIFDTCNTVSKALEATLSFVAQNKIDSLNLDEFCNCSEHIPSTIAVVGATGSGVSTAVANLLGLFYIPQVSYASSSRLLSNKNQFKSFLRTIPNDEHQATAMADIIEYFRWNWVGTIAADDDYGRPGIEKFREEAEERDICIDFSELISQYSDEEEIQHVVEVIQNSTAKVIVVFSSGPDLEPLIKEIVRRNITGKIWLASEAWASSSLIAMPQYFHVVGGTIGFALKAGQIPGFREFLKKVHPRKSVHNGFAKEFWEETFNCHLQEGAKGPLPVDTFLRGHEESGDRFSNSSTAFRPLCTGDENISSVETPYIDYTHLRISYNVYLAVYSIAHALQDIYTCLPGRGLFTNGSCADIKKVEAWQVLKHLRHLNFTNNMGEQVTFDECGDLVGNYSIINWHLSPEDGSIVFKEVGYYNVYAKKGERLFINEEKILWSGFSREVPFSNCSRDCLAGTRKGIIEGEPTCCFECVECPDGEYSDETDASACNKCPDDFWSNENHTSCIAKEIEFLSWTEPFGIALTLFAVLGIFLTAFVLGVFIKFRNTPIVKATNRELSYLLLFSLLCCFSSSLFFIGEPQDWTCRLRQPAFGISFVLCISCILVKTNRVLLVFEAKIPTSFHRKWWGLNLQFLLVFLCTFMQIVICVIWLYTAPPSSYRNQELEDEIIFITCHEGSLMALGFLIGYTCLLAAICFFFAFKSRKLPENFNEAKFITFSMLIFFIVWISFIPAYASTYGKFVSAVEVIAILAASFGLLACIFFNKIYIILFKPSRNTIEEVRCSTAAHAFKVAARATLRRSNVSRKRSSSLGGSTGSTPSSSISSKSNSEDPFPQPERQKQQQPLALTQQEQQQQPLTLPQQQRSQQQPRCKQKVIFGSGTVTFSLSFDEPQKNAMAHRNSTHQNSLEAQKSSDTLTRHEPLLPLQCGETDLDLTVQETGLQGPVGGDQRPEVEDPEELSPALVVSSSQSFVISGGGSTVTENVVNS
# Test: [Ca2+]i measurement with fluo-3 in HEK 293 4.0-7 cells stably transfected with hPCaR
# Format: cell-based
# Conditions: fluo-3 fluorescence (485/530 nm), effect on [Ca^2+]i
# Protocol: The activities of the compounds of the present invention on calcium receptors were measured. In one embodiment, the measurement was performed in accordance with the method described in Example 4 of Nemeth et al., PCT/US95/13704 (International Publication No. WO96/12697) herein incorporated by reference.
# A 4.0-kb NotI-HindIII fragment of the human parathyroid cell Ca^2+ receptor (hPCaR) cDNA was subcloned into the mammalian expression vector pCEP4 (Invitrogen) containing the hygromycin-resistant gene as a selectable marker. This plasmid was transfected into HEK 293 cells by calcium phosphate precipitation. Transfected cells were grown in Dulbecco's modified Eagle's medium containing 10% fetal bovine serum and hygromycin (200 μg/mL). Hygromycin-resistant colonies were subcloned and assayed for hPCaR mRNA by solution hybridization using a ^32P-labeled RNA probe complementary to the (4.0 kb) hPCaR sequence (Garrett, et al., J. Biol. Chem. 270, 12919-12925 (1995)). Clone 7 was used to assess the effects of compounds on [Ca^2+]i. This stably transfected cell line is termed HEK 293 4.0-7. For measurements of [Ca^2+]i, the cells were recovered from tissue culture flasks by brief treatment with 0.02% EDTA and then washed and resuspended in PCB containing 1 mM CaCl2 and 0.1% Bovine Serum Albumin (“BSA”). The cells were loaded with fluo-3 by incubation for 30 min at 37° C., with parathyroid cell buffer (126 mM NaCl, 4 mM KCl, 1 mM MgSO4, 0.7 mM K2HPO/KH2PO4, 20 mM HEPES.NaOH (pH 7.45)) containing 0.5% BSA in lmM CaCl2 and 2 μM fluo-3 acetoxymethyl ester. The cells were subsequently washed, each test compound was added to the cells and the fluorescence was recorded by using excitation and emission wavelengths of 485 and 530 nm, respectively.
row,Compound,EC50
1,"C[C@@H](NCc1ccc(OCC(F)(F)F)c(-c2ccc(C(F)(F)F)cc2)c1)c1cccc2ccccc12 [(1R)-1-(1-naphthalenyl)-N-((6-((2,2,2-trifluoroethyl)oxy)-4′-(trifluoromethyl)-1,1′-biphenyl-3-yl)methyl)ethanamine]",≤ 10 µM
2,COc1ccc(CN[C@H](C)c2ccccc2)cc1-c1cn(C)cn1 [(1R)-N-((3-(1-methyl-1H-imidazol-4-yl)-4-(methyloxy)phenyl)methyl)-1-phenylethanamine],≤ 10 µM
3,C[C@@H](NCc1ccc(OC(F)F)c(-c2cccnc2)c1)c1cccc2ccccc12 [(1R)-N-((4-((difluoromethyl)oxy)-3-(3-pyridinyl)phenyl)methyl)-1-(1-naphthalenyl)ethanamine],≤ 10 µM
4,"COc1cccc([C@@H](C)NCc2ccc(OC)c(-c3nc4ccccc4s3)c2)c1 [(1R)-N-((3-(1,3-benzothiazol-2-yl)-4-(methyloxy)phenyl)methyl)-1-(3-(methyloxy)phenyl)ethanamine]",≤ 10 µM
5,"COc1cccc(-c2cccc(CN[C@H](C)c3cccc(OC)c3)c2)c1 [(1R)-N-((3′-(methyloxy)-1,1′-biphenyl-3-yl)methyl)-1-(3-(methyloxy)phenyl)ethanamine]",≤ 10 µM
6,COc1ccc(CN[C@H](C)c2cccc3ccccc23)cc1-c1ccc(C(F)(F)F)nc1,≤ 10 µM
7,COc1cccc([C@@H](C)NCc2ccc(OC)c(-c3ccoc3)c2)c1 [(1R)-N-((3-(3-furanyl)-4-(methyloxy)phenyl)methyl)-1-(3-(methyloxy)phenyl)ethanamine],≤ 10 µM
8,COc1cccc([C@@H](C)NCc2ccc(OC)c(-c3ccc(OC)nn3)c2)c1 [(1R)-N-((4-(methyloxy)-3-(6-(methyloxy)-3-pyridazinyl)phenyl)methyl)-1-(3-(methyloxy)phenyl)ethanamine],≤ 10 µM
9,"CC[C@@H](NCc1ccc(OC)c(-c2ccc(OC)cc2)c1)c1ccccc1 [Example 450, (1R)-N-((4′,6-bis(methyloxy)-1,1′-biphenyl-3-yl)methyl)-1-phenyl-1-propanamine]",≤ 10 µM
10,"COc1ccc(-c2cccc(CN[C@H](C)c3cccc(OC)c3)c2)cc1 [(1R)-N-((4′-(methyloxy)-1,1′-biphenyl-3-yl)methyl)-1-(3-(methyloxy)phenyl)ethanamine]",≤ 10 µM
11,"COc1ccc(CNC(C)c2cccc(F)c2)cc1-c1ccc(C(F)(F)F)cc1 (stereo not shown) [1-(3-fluorophenyl)-N-((6-(methyloxy)-4′-(trifluoromethyl)-1,1′-biphenyl-3-yl)methyl)ethanamine]",≤ 10 µM
12,COc1ccc([C@@H](C)NCc2ccc(OC)c(-c3ccc(OC)nn3)c2)cc1 [(1R)-N-((4-(methyloxy)-3-(6-(methyloxy)-3-pyridazinyl)phenyl)methyl)-1-(4-(methyloxy)phenyl)ethanamine],≤ 10 µM
13,"Cc1ccc([C@@H](C)NCc2cccc(-c3ccc4c(c3)OCO4)c2)cc1 [(1R)-N-((3-(1,3-benzodioxol-5-yl)phenyl)methyl)-1-(4-methylphenyl)ethanamine]",≤ 10 µM
14,"COc1ccc(CN[C@H](C)c2ccccc2)cc1-c1ccc2nonc2c1 [(1R)-N-((3-(2,1,3-benzoxadiazol-5-yl)-4-(methyloxy)phenyl)methyl)-1-phenylethanamine]",≤ 10 µM
15,COc1cccc([C@@H](C)NCc2ccc(OC)c(-c3csc(N4CCCCC4)n3)c2)c1,≤ 10 µM
16,COc1ccc(CN[C@H](C)c2ccccc2)cc1-c1csc2ccccc12 [(1R)-N-((3-(1-benzothien-3-yl)-4-(methyloxy)phenyl)methyl)-1-phenylethanamine],≤ 10 µM

row,Compound,EC50
1,"COc1ccc(CN[C@H](C)c2cccc3ccccc23)cc1-c1nc2ccccc2s1 [(1R)-N-((3-(1,3-benzothiazol-2-yl)-4-(methyloxy)phenyl)methyl)-1-(1-naphthalenyl)ethanamine]",≤ 10 µM
2,COc1ccc(CN[C@H](C)c2ccccc2)cc1-c1ccc(OCC2CCCO2)nc1 (stereo partly drawn) [(1R)-N-((4-(methyloxy)-3-(6-((tetrahydro-2-furanylmethyl)oxy)-3-pyridinyl)phenyl)methyl)-1-phenylethanamine],≤ 10 µM
3,"COc1ccc(CN[C@H](C)c2ccccc2)cc1-c1ccc(OCC(F)(F)F)nc1 [(1R)-N-((4-(methyloxy)-3-(6-((2,2,2-trifluoroethyl)oxy)-3-pyridinyl)phenyl)methyl)-1-phenylethanamine]",≤ 10 µM
4,COc1ccc(CN[C@H](C)c2cccc3ccccc23)cc1C1CCN(C(C)=O)CC1 [(1R)-N-((3-(1-acetyl-4-piperidinyl)-4-(methyloxy)phenyl)methyl)-1-(1-naphthalenyl)ethanamine],≤ 10 µM
5,"COc1ccc(CN[C@H](C)c2ccccc2)cc1-c1ccc2nsnc2c1 [(1R)-N-((3-(2,1,3-benzothiadiazol-5-yl)-4-(methyloxy)phenyl)methyl)-1-phenylethanamine]",≤ 10 µM
6,"COc1ccc(CN[C@H](C)c2cccc3ccccc23)cc1-c1ccc(C(F)(F)F)cc1 [(1R)-N-((6-(methyloxy)-4′-(trifluoromethyl)-1,1′-biphenyl-3-yl)methyl)-1-(1-naphthalenyl)ethanamine]",≤ 10 µM
7,"COc1cccc([C@@H](C)NCc2ccc(OC)c(-c3cccc(C#N)c3)c2)c1 [2′-(methyloxy)-5′-((((1R)-1-(3-(methyloxy)phenyl)ethyl)amino)methyl)-1,1′-biphenyl-3-carbonitrile]",≤ 10 µM
8,COc1ccc(CN[C@H](C)c2cccc3ccccc23)cc1-c1ccc2ccn(C)c2c1 [(1R)-N-((3-(1-methyl-1H-indol-6-yl)-4-(methyloxy)phenyl)methyl)-1-(1-naphthalenyl)ethanamine],≤ 10 µM
9,"COc1ccccc1-c1cc(CN[C@H](C)c2ccccc2)ccc1OC [Example 253, (1R)-N-((2′,6-bis(methyloxy)-1,1′-biphenyl-3-yl)methyl)-1-phenylethanamine]",≤ 10 µM
10,CCOC(=O)N1CCC(c2cc(CN[C@H](C)c3ccccc3)ccc2OC)CC1 [ethyl 4-(2-(methyloxy)-5-((((1R)-1-phenylethyl)amino)methyl)phenyl)-1-piperidinecarboxylate],≤ 10 µM
11,COc1cccc([C@@H](C)NCc2ccc(OC)c(C3CCN(C)CC3)c2)c1 [(1R)-N-((4-(methyloxy)-3-(1-methyl-4-piperidinyl)phenyl)methyl)-1-(3-(methyloxy)phenyl)ethanamine],≤ 10 µM
12,"COc1ccc([C@@H](C)NCc2cccc(-c3ccccc3F)c2)cc1 [(1R)-N-((2′-fluoro-1,1′-biphenyl-3-yl)methyl)-1-(4-(methyloxy)phenyl)ethanamine]",≤ 10 µM
13,"C[C@@H](NCc1ccc(Cl)c(-c2ccc(C(F)(F)F)cc2)c1)c1cccc2ccccc12 [(1R)-N-((6-chloro-4′-(trifluoromethyl)-1,1′-biphenyl-3-yl)methyl)-1-(1-naphthalenyl)ethanamine]",≤ 10 µM
14,COc1ccc(CN[C@H](C)c2ccccc2)cc1-c1cncc(C(N)=O)c1 [5-(2-(methyloxy)-5-((((1R)-1-phenylethyl)amino)methyl)phenyl)-3-pyridinecarboxamide],≤ 10 µM
15,"COc1cccc([C@@H](C)NCc2ccc(OC)c(-c3cnc4c(ccn4C)c3)c2)c1 [(1R)-N-((4-(methyloxy)-3-(1-methyl-1H-pyrrolo[2,3-b]pyridin-5-yl)phenyl)methyl)-1-(3-(methyloxy)phenyl)ethanamine]",≤ 10 µM
